Test results as given in patent US20050084914A1, “Assays with primary cells” (priority 2003, published 2005).
Values belong to the compound of their own block, whether it stands above or below them.

Columns and labels:
HRPTE cells = experiment: cytotoxicity response of HRPTE cells (death index, live/dead assay); type: cell-based, human; conditions: HRPTE cells in 96-well microplate wells or on coded carriers; various concentrations
Procedure: This example describes how multiplexed analysis using coded carriers may be used to study the cytotoxicity response of HRPTE cells to staurosporine, in accordance with aspects of the present teachings; see FIG. 7.
Specifically, HRPTE cells are grown directly attached to wells of a standard 96-well microplate, or on coded carriers that optionally may be placed in wells of the microplate. A “death index” (e.g., the fraction of observed cells that are dead) may be used as a measure of cytotoxicity. The death index may be computed using any suitable mechanism, such as a fluorescence-based “live/dead assay.” In an exemplary version of the assay, live cells are labeled green using a membrane-permeant calcein AM, which is cleaved by esterases in live cells to yield cytoplasmic green fluorescence, and dead cells are labeled red using a membrane-impermeant ethidium homodimer-1, which passes through the compromised membranes of dead cells to label nucleic acids with red fluorescence. […] This reduction may be particularly significant in assays on primary cells, because primary cells typically are difficult to obtain and maintain.

[1] = tested on: primary human renal proximal tubule epithelial (HRPTE) cells; experiment: proliferative response of primary HRPTE cells (S-phase index); type: cell-based; conditions: HRPTE cells in 96-well microplate wells or on coded carriers; various concentrations
Procedure: This example describes how multiplexed analysis using coded carriers may be used to assay the effects of camptothecin on the proliferative response of primary human renal proximal tubule epithelial (HRPTE) cells, in accordance with aspects of the present teachings; see FIG. 6.
Specifically, HRPTE cells are grown directly in wells of a standard 96-well microplate, to three different cell densities (indicated as the stated number of cells), or on coded carriers that optionally may be placed in wells of the microplate. An “S-phase index” (e.g., the fraction of cells in the S-phase of the cell cycle) is used as a measure of cell proliferation. […] This reduction may be particularly significant in assays on primary cells, because primary cells typically are difficult to obtain and maintain.

PPARγ = target: T1, PPARγ (Homo sapiens, UniProt P37231); experiment: PPARγ activity assay based on PEPCK expression in primary pre-adipocytes on coded carriers; conditions: four donor samples (visceral and subcutaneous pre-adipocytes), shared fluid volume, four days
T1 sequence (P37231 1-505): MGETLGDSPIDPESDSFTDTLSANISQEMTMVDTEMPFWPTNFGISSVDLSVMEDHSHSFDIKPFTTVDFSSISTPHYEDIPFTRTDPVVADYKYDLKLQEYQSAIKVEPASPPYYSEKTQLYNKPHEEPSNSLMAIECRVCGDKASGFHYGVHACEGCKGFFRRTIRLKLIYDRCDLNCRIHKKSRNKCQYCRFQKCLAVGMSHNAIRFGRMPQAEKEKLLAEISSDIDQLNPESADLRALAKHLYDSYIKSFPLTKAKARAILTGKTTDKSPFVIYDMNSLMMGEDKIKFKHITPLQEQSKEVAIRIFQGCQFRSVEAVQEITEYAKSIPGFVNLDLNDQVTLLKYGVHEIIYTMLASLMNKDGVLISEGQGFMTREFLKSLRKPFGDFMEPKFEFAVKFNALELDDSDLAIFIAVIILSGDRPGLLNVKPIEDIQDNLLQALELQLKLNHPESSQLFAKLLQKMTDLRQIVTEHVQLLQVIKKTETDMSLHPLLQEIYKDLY
Excerpt: This differentiation may be visualized readily and scored by staining lipid droplets that accumulate in the cytoplasm of the adipocytes during and/or after their differentiation. Furthermore, this adipocyte differentiation and/or activation of PPARγ may be followed by measuring the expression levels (RNA and/or protein) of PPARγ target genes (direct or indirect targets), such as PEPCK (phosphoenolpyruvate carboxykinsae) and/or FABP4 (fatty acid binding protein 4), among others.
Staining was via indirect immunofluorescence. Cells were counterstained with a nuclear dye (Hoechst) for data normalization, here and in other assays. […] Each sample of primary cells corresponds to pre-adipocytes isolated from visceral tissue (samples starting with the letter “V”) or isolated from subcutaneous tissue (samples starting with the letters “SC”) and were supplied by Cambrex. […] Each sample was connected to a distinct class of coded carriers (having a distinct code) to permit identification of the sample after combining the different classes of carrier and samples in a shared volume. […] Lipid accumulation and PEPCK expression were then measured with the samples still disposed in the same microplate wells. […]

Structure (SMILES): CN[C@@H]1C[C@H]2O[C@@](C)([C@@H]1OC)n1c3ccccc3c3c4c(c5c6ccccc6n2c5c31)C(=O)NC4 [staurosporine]
- death index (fraction of dead cells) (HRPTE cells): generally increases with increasing staurosporine concentration

Structure (SMILES): CC[C@@]1(O)C(=O)OCc2c1cc1n(c2=O)Cc2cc3ccccc3nc2-1 [camptothecin]
- S-phase index as a measure of cell proliferation [1]: S-phase index generally decreases with increasing camptothecin concentration

- induction of PEPCK expression as a measure of PPARγ activity (PPARγ): relatively strong induction
Structure (SMILES): COc1ccc2c(c1)c(CC(=O)O)c(C)n2C(=O)c1ccc(Cl)cc1 [Indomethacin, indomethacin]
